# Measured values reported in US20190328900A1, “ANTIBODY-DRUG CONJUGATES AND THERAPEUTIC METHODS USING THE SAME” (priority 2016, published 2019).
# pIC50: −log10 of the molar value.
# What was measured:
# [1] = system: pseudotyped virus (NL4-3 provirus with various HIV gp160 envelope clones); experiment: Pseudotyped virus assay (PSV), luciferase reporter, U373 cells expressing human CD4 and CXCR4 or CCR5; type: cell-based
# From the text: A pseudotyped virus assay (PSV) was used to assess the potency of various HIV entry inhibitors. Replication defective virus was produced by co-transfection of a plasmid containing an NL4-3 provirus [containing a mutation in the envelope open reading frame (ORF) and a luciferase reporter gene replacing the nef ORF] and a CMV-promoter expression plasmid containing an ORF for various HIV gp160 envelope clones. The harvested virus was stored at −80C in small aliquots and the titer of the virus measured to produce a robust signal for antiviral assays.
# The PSV assay was performed by using U373 cells stably transformed to express human CD4, the primary receptor for HIV entry and either human CXCR4 or human CCR5 which are the co-receptors required for HIV entry as target cells for infection. Molecules of interest (including, but not limited to small molecule inhibitors of HIV, neutralizing antibodies of HIV, antibody-drug conjugate inhibitors of HIV, peptide inhibitors of HIV, and various controls) were diluted into tissue culture media and diluted via serial dilution to create a dose range of concentrations. This dose-range was applied to U373 cells and the pre-made pseudotyped virus added. The amount of luciferase signal produced after 3 days of culture was used to reflect the level of pseudotyped virus infection.
# [2] = system: HIV strains/subtypes; details: cited from earlier work
Molecule,"pIC50 ([1]; Human immunodeficiency virus 1, NL43, Table 14, first IC50 column (no further heading))","pIC50 ([1]; Human immunodeficiency virus 1, NL43, Table 14, second IC50 column (no further heading))","pIC50 ([1]; Human immunodeficiency virus 1, NL43, Table 14, third IC50 column (no further heading))",HIV strains/subtypes neutralized [2]
"O=C1Nc2ccc(Cl)cc2[C@@](C#CC2CC2)(C(F)(F)F)O1 [EFV, Efavirenz]",8.72,8.82,8.80,
"VRC01: broadly neutralizing anti-HIV antibody (IgG1) binding gp120, expressed in CHO cells; SEQ ID NO:9-13",,,,90%
